Converted amounts (≈) assume the structure as drawn. Where two headings read alike, the source gives them in different places.
Columns and labels:
[1] = Solubility of milvexian forms in organic solvent systems; assay type: physicochemical
Protocol: While heating of the feed solution is a viable solution for production, it is a more complex set-up and with risk of crashing out dissolved solids in case of cold spots and plant safety. Various solvent systems (See Table 11 below) were investigated with primary focus on solvent systems containing DCM due to its low boiling point and excellent solubilization properties.
Based on the data it was determined that 70/30 w/w % DCM/MeOH and 80/20 w/w % were promising solvent mixtures and more accurate solubility determination was carried out for 80/20 w/w % DCM/MeOH for both FORM A and P1.Acetone solvate at 20° C. with the results shown in Table 12 below.
P1.Acetone was the preferred crystalline form of milvexian for physical stability and manufacturability reasons. Based on the above, 80/20 w/w % DCM/MeOH solvent system was selected for development due to highly increase solubility over the 90/10 w/w % Acetone/Water solvent system.

[2] = Acetone/Water 90:10 w/w, cited from earlier work

C[C@@H]1CCC[C@H](n2cnc(-c3cc(Cl)ccc3-n3cc(Cl)nn3)cc2=O)c2cc(ccn2)-c2c(cnn2C(F)F)NC1=O
solubility ([1]; 80/20 w/w % DCM/MeOH, 20 °C, organic solvent or mixture, 80/20 w/w % DCM/MeOH, read-out: solubility): 230 mg/mL (≈ 367 mM)

C[C@@H]1CCC[C@H](n2cnc(-c3cc(Cl)ccc3-n3cc(Cl)nn3)cc2=O)c2cc(ccn2)-c2c(cnn2C(F)F)NC1=O [FORM A]
solubility at 24 hours ([1]; 70/30 DCM/MeOH, 20 °C, organic solvent or mixture, thermodynamic from solid, 70/30 DCM/MeOH, 20° C., 24 hours, read-out: Solubility in mg/mL solution 24 hours): 221 mg/mL (≈ 353 mM) | Solubility in mg/mL solution 2 weeks ([1]; 70/30 DCM/MeOH, 20° C.): 204 mg/mL (≈ 326 mM) | Solubility in mg/mL solution 2 weeks ([1]; 80/20 DCM/MeOH, 20° C.): 255 mg/mL (≈ 407 mM) | Solubility in mg/mL solution 24 hours ([1]; 80/20 DCM/MeOH, 20° C., 24 hours): 272 mg/mL (≈ 434 mM) | solubility ([1]; 80/20 w/w % DCM/MeOH, listed as crystalline Form A of milvexian free form): 255 mg/mL (≈ 407 mM) | solubility ([1]; DCM/MeOH solvent systems of Table 12, 20 °C, organic solvent or mixture, DCM/MeOH solvent systems of Table 12, read-out: solubilities achievable): > 220 mg/mL

C[C@@H]1CCC[C@H](n2cnc(-c3cc(Cl)ccc3-n3cc(Cl)nn3)cc2=O)c2cc(ccn2)-c2c(cnn2C(F)F)NC1=O [Milvexian, (5R,9S)-9-(4-(5-chloro-2-(4-chloro-1H-1,2,3-triazol-1-yl)phenyl)-6-oxopyrimidin-1(6H)-yl)-21-(difluoromethvl)-5-methyl-21H-3-aza-1(4,2)-pyridina-2(5,4)-pyrazolacyclononaphan-4-one]
solubility ([1]; 30/70 DCM/MeOH, 20 °C, organic solvent or mixture, 30/70 DCM/MeOH, temperature 20, read-out: Solubility in mg/mL solution): 16 mg/mL (≈ 25.5 mM) | solubility ([1]; 30/70 DCM/MeOH, 40 °C, organic solvent or mixture, 30/70 DCM/MeOH, temperature 40, read-out: Solubility in mg/mL solution): 26 mg/mL (≈ 41.5 mM) | Solubility description ([1]; 30/70 DCM/MeOH, temperature 20): Sparingly soluble | Solubility description ([1]; 30/70 DCM/MeOH, temperature 40): Sparingly soluble | solubility ([1]; 40/60 DCM/MeOH, 20 °C, organic solvent or mixture, 40/60 DCM/MeOH, temperature 20, read-out: Solubility in mg/mL solution): 29 mg/mL (≈ 46.3 mM) | solubility ([1]; 40/60 DCM/MeOH, 40 °C, organic solvent or mixture, 40/60 DCM/MeOH, temperature 40, read-out: Solubility in mg/mL solution): 44 mg/mL (≈ 70.2 mM) | Solubility description ([1]; 40/60 DCM/MeOH, temperature 20): Sparingly soluble | Solubility description ([1]; 40/60 DCM/MeOH, temperature 40): Soluble | solubility ([1]; 50/50 DCM/MeOH, 20 °C, organic solvent or mixture, 50/50 DCM/MeOH, temperature 20, read-out: Solubility in mg/mL solution): 58 mg/mL (≈ 92.6 mM) | solubility ([1]; 50/50 DCM/MeOH, 40 °C, organic solvent or mixture, 50/50 DCM/MeOH, temperature 40, read-out: Solubility in mg/mL solution): 77 mg/mL (≈ 123 mM) | Solubility description ([1]; 50/50 DCM/MeOH, temperature 20): Soluble | Solubility description ([1]; 50/50 DCM/MeOH, temperature 40): Soluble | solubility ([1]; 60/40 DCM/MeOH, 20 °C, organic solvent or mixture, 60/40 DCM/MeOH, temperature 20, read-out: Solubility in mg/mL solution): 120 mg/mL (≈ 192 mM) | solubility ([1]; 60/40 DCM/MeOH, 40 °C, organic solvent or mixture, 60/40 DCM/MeOH, temperature 40, read-out: Solubility in mg/mL solution): > 200 mg/mL | Solubility description ([1]; 60/40 DCM/MeOH, temperature 20): Freely Soluble | Solubility description ([1]; 60/40 DCM/MeOH, temperature 40): Freely Soluble | solubility ([1]; 70/30 DCM/MeOH, 20 °C, organic solvent or mixture, 70/30 DCM/MeOH, temperature 20, read-out: Solubility in mg/mL solution): > 200 mg/mL | solubility ([1]; 70/30 DCM/MeOH, 40 °C, organic solvent or mixture, 70/30 DCM/MeOH, temperature 40, read-out: Solubility in mg/mL solution): > 200 mg/mL | Solubility description ([1]; 70/30 DCM/MeOH, temperature 20): Freely Soluble | Solubility description ([1]; 70/30 DCM/MeOH, temperature 40): Freely Soluble | solubility ([1]; 80/20 DCM/MeOH, 20 °C, organic solvent or mixture, 80/20 DCM/MeOH, temperature 20, read-out: Solubility in mg/mL solution): > 200 mg/mL | solubility ([1]; 80/20 DCM/MeOH, 40 °C, organic solvent or mixture, 80/20 DCM/MeOH, temperature 40, read-out: Solubility in mg/mL solution): > 200 mg/mL | Solubility description ([1]; 80/20 DCM/MeOH, temperature 20): Freely Soluble | Solubility description ([1]; 80/20 DCM/MeOH, temperature 40): Freely Soluble | solubility ([1]; 90/10 DCM/MeOH, 20 °C, organic solvent or mixture, 90/10 DCM/MeOH, temperature 20, read-out: Solubility in mg/mL solution): > 200 mg/mL | solubility ([1]; 90/10 DCM/MeOH, 40 °C, organic solvent or mixture, 90/10 DCM/MeOH, temperature 40, read-out: Solubility in mg/mL solution): > 200 mg/mL | Solubility description ([1]; 90/10 DCM/MeOH, temperature 20): Freely Soluble | Solubility description ([1]; 90/10 DCM/MeOH, temperature 40): Freely Soluble | solubility ([1]; 100% DCM, 20 °C, organic solvent or mixture, 100% DCM, temperature 20, read-out: Solubility in mg/mL solution): 29 mg/mL (≈ 46.3 mM) | solubility ([1]; 100% DCM, 40 °C, organic solvent or mixture, 100% DCM, temperature 40, read-out: Solubility in mg/mL solution): 51 mg/mL (≈ 81.4 mM) | Solubility description ([1]; 100% DCM, temperature 20): Sparingly soluble | Solubility description ([1]; 100% DCM, temperature 40): Soluble | solubility ([1]; 100% MeOH, 20 °C, organic solvent or mixture, 100% MeOH, temperature 20, read-out: Solubility in mg/mL solution): 4.2 mg/mL (≈ 6.7 mM) | solubility ([1]; 100% MeOH, 40 °C, organic solvent or mixture, 100% MeOH, temperature 40, read-out: Solubility in mg/mL solution): 6.6 mg/mL (≈ 10.5 mM) | Solubility description ([1]; 100% MeOH, temperature 20): Slightly soluble | Solubility description ([1]; 100% MeOH, temperature 40): Slightly soluble | solubility ([1]; acetone/water 90/10 w/w %, 20 °C, organic solvent or mixture, acetone/water (90/10 w/w %), room temperature, read-out: solubility): 36 mg/mL (≈ 57.5 mM) | solubility ([1]; acetone/water 90/10 w/w %, 49 °C, organic solvent or mixture, acetone/water (90/10 w/w %), 49° C., read-out: solubility): 70 mg/mL (≈ 112 mM) | solubility ([2]; 20° C.): 36 mg/mL (≈ 57.5 mM) | solubility ([2]; 50° C.): 70 mg/mL (≈ 112 mM)

From patent US20260224494A1, “MILVEXIAN PHARMACEUTICAL COMPOSITIONS” (BRISTOL-MYERS SQUIBB COMPANY, priority 2023, published 2026)
